Reference: article PMC7052086, “Functional characterization of NADPH-cytochrome P450 reductase and cinnamic acid 4-hydroxylase encoding genes from Scoparia dulcis L” (Botanical Studies, 2020)

Molecular target: T1, SdC4H (CYP73A111) with SdCPR (Scoparia dulcis, UniProt U5N2L3)
T1 construct: gene C4H; full-length ORF in pET28b, His-tagged, E. coli BL21(DE3), crude soluble fraction; redox partner recombinant SdCPR (GenBank KF306080) added; with NADPH--cytochrome P450 reductase
Experiment: HPLC detection of 4-hydroxylated product
Format: biochemical
Conditions: 1 mM trans-cinnamic acid, 2 mM NADPH, recombinant SdCPR, 50 mM phosphate pH 7.4, 30 °C, 30 min

T1 sequence (U5N2L3 entry or part of it): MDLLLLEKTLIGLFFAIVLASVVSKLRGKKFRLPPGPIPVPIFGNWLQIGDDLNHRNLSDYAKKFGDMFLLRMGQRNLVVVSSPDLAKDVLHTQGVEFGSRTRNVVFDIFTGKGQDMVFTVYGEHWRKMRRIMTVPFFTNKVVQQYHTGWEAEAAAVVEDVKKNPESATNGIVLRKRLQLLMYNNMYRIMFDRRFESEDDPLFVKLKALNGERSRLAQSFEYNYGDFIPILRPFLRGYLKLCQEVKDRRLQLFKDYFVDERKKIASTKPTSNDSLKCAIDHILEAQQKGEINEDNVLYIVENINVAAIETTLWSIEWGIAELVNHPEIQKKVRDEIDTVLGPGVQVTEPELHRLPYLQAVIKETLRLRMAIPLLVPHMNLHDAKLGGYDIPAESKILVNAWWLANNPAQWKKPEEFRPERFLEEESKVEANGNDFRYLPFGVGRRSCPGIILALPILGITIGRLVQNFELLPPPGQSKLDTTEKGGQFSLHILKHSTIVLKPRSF
T1 sequence (U5N352 entry or part of it, further chain): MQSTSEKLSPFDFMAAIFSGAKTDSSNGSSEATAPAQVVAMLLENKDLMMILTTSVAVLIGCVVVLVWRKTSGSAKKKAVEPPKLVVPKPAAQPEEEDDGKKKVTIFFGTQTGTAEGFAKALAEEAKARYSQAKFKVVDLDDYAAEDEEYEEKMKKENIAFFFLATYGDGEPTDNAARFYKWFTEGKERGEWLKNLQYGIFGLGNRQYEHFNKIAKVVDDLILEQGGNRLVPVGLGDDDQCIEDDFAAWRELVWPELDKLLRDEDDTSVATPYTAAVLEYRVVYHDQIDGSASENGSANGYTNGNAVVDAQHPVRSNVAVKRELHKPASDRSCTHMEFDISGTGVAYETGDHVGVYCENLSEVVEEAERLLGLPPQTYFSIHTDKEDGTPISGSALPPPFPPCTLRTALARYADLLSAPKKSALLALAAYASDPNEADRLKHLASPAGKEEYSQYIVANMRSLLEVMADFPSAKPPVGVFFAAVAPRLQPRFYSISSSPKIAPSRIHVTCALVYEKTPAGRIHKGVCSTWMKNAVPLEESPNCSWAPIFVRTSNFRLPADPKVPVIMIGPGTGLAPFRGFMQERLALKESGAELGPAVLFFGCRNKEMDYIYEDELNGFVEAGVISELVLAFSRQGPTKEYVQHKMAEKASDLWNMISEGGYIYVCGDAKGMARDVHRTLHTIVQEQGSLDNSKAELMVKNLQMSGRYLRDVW

Which “HPLC detection of 4-hydroxylated product” value does the source give for `O=C(O)/C=C/c1ccccc1` [trans-cinnamic acid] here?
The value was “the C4H activity (trans-cinnamic acid was 4-hydroxylated) of recombinant SdC4H was detected by HPLC”.
